Data published in ChEMBL document CHEMBL1201862, “PubChem BioAssay data set” (2004).
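1) Cells in 96-well plates. 2) Compound, 48 h, 5 concentrations. 3) Linear interpolation between surrounding doses. 4) Unreached endpoint = highest concentration. The concentration for 50% growth inhibition is given as GI50.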 Calls of active or inactive are those of the source. Cut-off read from the data, not from the text of the source: active = GI50 up to about 1.1 µM and inactive = higher.

Assays:
Test in all cases: NCI anticancer screen, dose series, 48 h
[1] = test system: ACHN
[2] = test system: BT-549
[3] = test system: CCRF-CEM
[4] = test system: DLD-1
[5] = test system: DMS-114
[6] = test system: DU-145
[7] = test system: EKVX
[8] = test system: HCT-116
[9] = test system: HCT-15
[10] = test system: HL-60
[11] = test system: HOP-62
[12] = test system: HOP-92
[13] = test system: HT-29
[14] = test system: Hs-578T
[15] = test system: K562
[16] = test system: KM-20L2
[17] = test system: KM12
[18] = test system: M19-MEL
[19] = test system: MOLT-4
[20] = test system: Malme-3M
[21] = test system: NCI-H226
[22] = test system: NCI-H23
[23] = test system: NCI-H522
[24] = test system: NCI/ADR-RES
[25] = test system: OVCAR-3
[26] = test system: OVCAR-4
[27] = test system: OVCAR-5
[28] = test system: PC-3
[29] = test system: RPMI-8226
[30] = test system: RXF 393
[31] = test system: SF-295
[32] = test system: SNB-19
[33] = test system: SR
[34] = test system: T47D
[35] = test system: XF498
[36] = test system: 786-0
[37] = test system: A549
[38] = test system: COLO 205
[39] = test system: DMS-273
[40] = test system: HCC 2998
[41] = test system: IGROV-1
[42] = test system: LOX IMVI
[43] = test system: LXFL 529
[44] = test system: M14
[45] = test system: NCI-H460
[46] = test system: OVCAR-8
[47] = test system: SF-268
[48] = test system: SF-539
[49] = test system: SK-MEL-28
[50] = test system: SK-MEL-2
[51] = test system: SK-MEL-5
[52] = test system: SK-OV-3
[53] = test system: SN12C
[54] = test system: SNB-75
[55] = test system: SNB-78
[56] = test system: SW-620
[57] = test system: TK-10
[58] = test system: U-251
[59] = test system: UACC-257
[60] = test system: UACC-62
[61] = test system: UO-31
[62] = test system: HOP-18

With `CCc1ccc(NCc2cc(OC)c(OC)c(OC)c2)cc1` the GI50 [1] was 2.24 µM (inactive), the GI50 [2] was < 0.01 µM (active) and the GI50 [3] was 0.284 µM (active). The GI50 [4] was 0.492 µM (active), the GI50 [5] was 0.457 µM (active) and the GI50 [6] was 0.716 µM (active). For the same molecule, the GI50 [7] was 4.2 µM (inactive), the GI50 [8] was 0.0998 µM (active) and the GI50 [9] was 0.164 µM. For the same molecule, the GI50 [10] was 0.056 µM (active), the GI50 [11] was 0.532 µM (active) and the GI50 [12] was 1.24 µM (inactive). For the same molecule, the GI50 [13] was 0.176 µM (active), the GI50 [14] was 0.261 µM (active) and the GI50 [15] was 0.0845 µM (active). For the same molecule, the GI50 [16] was 0.267 µM (active), the GI50 [17] was 0.0738 µM (active) and the GI50 [18] was 0.413 µM (active). For the same molecule, the GI50 [19] was 0.29 µM (active), the GI50 [20] was 0.232 µM (active) and the GI50 [21] was 3.3 µM (inactive). The GI50 [22] was 0.611 µM (active), the GI50 [23] was 0.186 µM (active) and the GI50 [24] was 0.0611 µM (active). For the same molecule, the GI50 [25] was 0.211 µM (active), the GI50 [26] was 18.2 µM (inactive) and the GI50 [27] was 3.02 µM (inactive). The GI50 [28] was 0.305 µM (active), the GI50 [29] was 0.367 µM (active) and the GI50 [30] was 0.211 µM (active). For the same molecule, the GI50 [31] was 0.197 µM (active), the GI50 [32] was 0.522 µM (active) and the GI50 [33] was < 0.0282 µM (active). The GI50 [34] was 0.302 µM (active) and the GI50 [35] was 0.933 µM (active).

With `CCCCOP1(=O)CC(C)=C(Cl)C(C)(OC)C1` (stereo not drawn) the GI50 [36] was > 100 µM (inactive), the GI50 [37] was > 100 µM (inactive) and the GI50 [1] was > 100 µM (inactive). The GI50 [3] was 28.4 µM (inactive), the GI50 [38] was > 100 µM (inactive) and the GI50 [4] was 44.8 µM (inactive). For the same molecule, the GI50 [39] was > 100 µM (inactive), the GI50 [7] was > 100 µM (inactive) and the GI50 [40] was > 100 µM (inactive). For the same molecule, the GI50 [8] was 61.4 µM (inactive), the GI50 [9] was greater than 100 µM and the GI50 [10] was 26.9 µM (inactive). The GI50 [11] was > 100 µM (inactive), the GI50 [12] was 43.7 µM (inactive) and the GI50 [13] was > 100 µM (inactive). For the same molecule, the GI50 [41] was > 100 µM (inactive), the GI50 [15] was 29.6 µM (inactive) and the GI50 [16] was > 100 µM (inactive). The GI50 [17] was > 100 µM (inactive), the GI50 [42] was > 100 µM (inactive) and the GI50 [43] was 45.2 µM (inactive). For the same molecule, the GI50 [44] was > 100 µM (inactive), the GI50 [18] was > 100 µM (inactive) and the GI50 [19] was 34.4 µM (inactive). For the same molecule, the GI50 [20] was > 100 µM (inactive), the GI50 [21] was > 100 µM (inactive) and the GI50 [22] was > 100 µM (inactive). The GI50 [45] was > 100 µM (inactive), the GI50 [23] was 37.9 µM (inactive) and the GI50 [25] was > 100 µM (inactive). For the same molecule, the GI50 [26] was > 100 µM (inactive), the GI50 [46] was 62.2 µM (inactive) and the GI50 [30] was > 100 µM (inactive). The GI50 [47] was > 100 µM (inactive), the GI50 [31] was > 100 µM (inactive) and the GI50 [48] was > 100 µM (inactive). For the same molecule, the GI50 [49] was > 100 µM (inactive), the GI50 [50] was 41 µM (inactive) and the GI50 [51] was > 100 µM (inactive). For the same molecule, the GI50 [52] was > 100 µM (inactive), the GI50 [53] was > 100 µM (inactive) and the GI50 [32] was > 100 µM (inactive). For the same molecule, the GI50 [54] was > 100 µM (inactive), the GI50 [55] was > 100 µM (inactive) and the GI50 [33] was 31.8 µM (inactive). For the same molecule, the GI50 [56] was 46.7 µM (inactive), the GI50 [57] was > 100 µM (inactive) and the GI50 [58] was > 100 µM (inactive). The GI50 [59] was > 100 µM (inactive), the GI50 [60] was > 100 µM (inactive) and the GI50 [61] was > 100 µM (inactive). The GI50 [35] was > 100 µM (inactive).

For `O=C1CCC2(O)c3ccccc3C2Cc2ccccc21` (stereo not drawn), the GI50 [36] was > 100 µM (inactive), the GI50 [1] was > 100 µM (inactive) and the GI50 [3] was > 100 µM (inactive). The GI50 [38] was > 100 µM (inactive), the GI50 [4] was > 100 µM (inactive) and the GI50 [5] was > 100 µM (inactive). The GI50 [39] was > 100 µM (inactive), the GI50 [7] was > 100 µM (inactive) and the GI50 [40] was > 100 µM (inactive). The GI50 [8] was > 100 µM (inactive), the GI50 [10] was > 100 µM (inactive) and the GI50 [62] was > 100 µM (inactive). The GI50 [11] was > 100 µM (inactive), the GI50 [12] was 70.1 µM (inactive) and the GI50 [13] was > 100 µM (inactive). The GI50 [41] was > 100 µM (inactive), the GI50 [15] was > 100 µM (inactive) and the GI50 [16] was > 100 µM (inactive). For the same molecule, the GI50 [17] was > 100 µM (inactive), the GI50 [42] was > 100 µM (inactive) and the GI50 [18] was > 100 µM (inactive). The GI50 [19] was > 100 µM (inactive), the GI50 [20] was > 100 µM (inactive) and the GI50 [21] was > 100 µM (inactive). The GI50 [22] was > 100 µM (inactive), the GI50 [45] was > 100 µM (inactive) and the GI50 [25] was > 100 µM (inactive). For the same molecule, the GI50 [46] was > 100 µM (inactive), the GI50 [29] was > 100 µM (inactive) and the GI50 [30] was > 100 µM (inactive). For the same molecule, the GI50 [47] was > 100 µM (inactive), the GI50 [31] was > 100 µM (inactive) and the GI50 [48] was > 100 µM (inactive). For the same molecule, the GI50 [49] was > 100 µM (inactive), the GI50 [50] was > 100 µM (inactive) and the GI50 [53] was > 100 µM (inactive). The GI50 [32] was > 100 µM (inactive), the GI50 [54] was 63.8 µM (inactive) and the GI50 [55] was > 100 µM (inactive). For the same molecule, the GI50 [33] was > 100 µM (inactive), the GI50 [56] was > 100 µM (inactive) and the GI50 [57] was > 100 µM (inactive). The GI50 [58] was > 100 µM (inactive), the GI50 [59] was > 100 µM (inactive) and the GI50 [60] was > 100 µM (inactive). The GI50 [35] was > 100 µM (inactive).
